Measured values reported in patent publication US6030993A, “2-hydroxypropionic acid derivative and its manufacturing method” (Sang Sup JEW, priority 1996, dated 2000).
“Also recorded” adds a separate entry of the source.

tested on: not given; test: not given; settings: phase II clinical trials, discontinued; cited from earlier work

Row | SMILES | side effects associated with prolonged administration
1 | CCOC(=O)[C@@]1(CCCCCCOc2ccc(Cl)cc2)CO1 [etomoxir] | enlarged heart; also recorded: toxicity in the liver

tested on: diabetes-induced Sprague-Dawley rats; test: Blood glucose lowering effect in streptozotocin diabetes-induced rats, oral; type: in vivo; settings: Rattus norvegicus; STZ (45 mg/kg) diabetic male Sprague-Dawley rats; 50 mg/kg oral in 30% ethanol; smallest blood glucose of 90, 120 and 180 min; read-out: Blood glucose lowering rate
Experimental: Two groups of male diabetes-induced Sprague-Dawley rats (each of 4-5 rats weighing about 250 g per group) were used for this experiment. 45 mg/kg of streptozotocin (STZ) dissolved in 0.1M citrate buffer (pH 4.5, 0-4° C.) was injected to the tail vein of fasted rats for 1 day. After elapse of 7 days, their blood glucose concentration were measured and animals having the blood serum concentration of more than 350 mg/dl were used as diabetes-induced rats for this experiment. The rats were intravenously administered at a daily dose of 1 ml/kg, while the normal control group received equal volume of 0.1M citrate buffer.
7 days after being treated with streptozotocin, diabetes-induced rats were orally administered at a dose of 50 mg/kg of the compounds prepared by the procedures of Examples 1-13. Then, at time intervals of 90 mins, 120 mins and 180 mins, their blood glucose concentrations were measured and the smallest values were taken. The compounds of Example 1-13 were dissolved in 30% ethanol until its final concentration became 2 ml/kg, while the control group was orally received equal volume of 30% ethanol.
Significant difference between two groups was determined by ANOVA test, together with a post hoc test using Newman-Keuls test.

Row | SMILES | inhibition in vivo at 50 mg/kg
2 | CCOC(=O)C(O)(CCCCCCOCc1ccccc1)COS(=O)(=O)c1ccc(C)cc1 (stereo not drawn) [Example 10, Ethyl 2-hydroxy-3-(4-methylbenzenesulfoxy)-2-[6-benzoxyhexyl]propionate] | 34.1%
3 | CCOC(=O)C(O)(CBr)CCCCCCOCc1ccc(Cl)s1 (stereo not drawn) [Example 12, Ethyl 2-hydroxy-3-bromo-2-[6-(5-chlorothiophenemethoxy)hexyl]propionate] | 26.4%
4 | CCOC(=O)C(O)(CO)CCCCCCOCc1ccc(Cl)s1 (stereo not drawn) [Example 7, Ethyl-2,3-dihydroxy-2-[6-(5-chloro-2-thiophenmethoxy)hexyl]propionate] | 19.2%
5 | CCOC(=O)C(O)(CO)CCCCCCOCc1sccc1Cl (stereo not drawn) [Example 8, Ethyl-2,3-dihydroxy-2-[6-(3-chloro-2-thiophenmethoxy)hexyl]propionate] | 26%
6 | CCOC(=O)C(O)(CO)CCCCCCOCCc1cccs1 (stereo not drawn) [Example 6, Ethyl-2,3-dihydroxy-2-[6-(2-thiophenethoxy)hexyl]propionate] | 1.2%
7 | CCOC(=O)C(O)(CO)CCCCCCOCc1ccc(OC)cc1 (stereo not drawn) [Example 2, Ethyl-2,3-dihydroxy-2-[6-(4-methoxybenzoxy)hexyl]propionate] | 10%
8 | CCOC(=O)C(O)(CO)CCCCCCOCc1ccc(C)o1 (stereo not drawn) [Example 5, Ethyl-2,3-dihydroxy-2-[6-(5-methyl-2-furanmethoxy)hexyl]propionate] | 22%
9 | CCOC(=O)C(O)(CO)CCCCCCOCc1ccccc1 (stereo not drawn) [Example 1, Ethyl-2,3-dihydroxy-2-(6-benzoxy)hexylpropionate] | 38.5%
10 | CCOC(=O)C(O)(CBr)CCCCCCOCc1sccc1Cl (stereo not drawn) [Example 13, Ethyl 2-hydroxy-3-bromo-2-[6-(3-chlorothiophenemethoxy)hexyl]propionate] | 19.3%
11 | CCOC(=O)C(O)(CBr)CCCCCCOc1ccc(Cl)cc1 (stereo not drawn) [Example 9] | 22%
12 | CCOC(=O)C(O)(CO)CCCCCCOc1ccc(Cl)cc1 (stereo not drawn) [Example 3, Ethyl-2,3-dihydroxy-2-[6-(4-chlorophenoxy)hexyl]propionate] | 23%
13 | CCOC(=O)C(O)(CBr)CCCCCCOCCc1cccs1 (stereo not drawn) [Example 11, Ethyl 2-hydroxy-3-bromo-2-[6-(2-thiophenethoxy)hexyl]propionate] | 13%

same assay, conditions: STZ (45 mg/kg) diabetic male Sprague-Dawley rats; 50 mg/kg oral in 30% ethanol; smallest blood glucose of 90, 120 and 180 min

Row | SMILES | Blood glucose lowering rate
14 | CCOC(=O)C(O)(CO)CCCCCCn1nc(C)cc1C (stereo not drawn) [Example 4, Ethyl-2,3-dihydroxy-2-[6-(3,5-dimethylpyrazol)hexyl]propionate] | 19.8%

tested on: not listed separately; test: Acute oral toxicity test in rats; settings: rat, in vivo, mature rats 200-250 g, dissolved in ethylacetate
Experimental: The acute toxicity tests on rats were performed using the compound prepared by the procedure of the Example 1. Mature rats weighing 200-250 g were orally given the compound of the Example 1 dissolved in ethylacetate in parallel with its gradually increasing concentration. Then, LD50 was calculated by number of killed animals.

Row | SMILES | LD50
15 | CCOC(=O)C(O)(CO)CCCCCCOCc1ccccc1 (stereo not drawn) [Example 1, Ethyl-2,3-dihydroxy-2-(6-benzoxy)hexylpropionate] | 482 mg/kg
